In brackets after ≈: the same amount, converted by molar mass.
Tests used:
Type in all cases: functional
Escherichia coli [1] = test: Antimicrobial activity against permeability mutant Escherichia coli imp by agar dilution method
Enterococcus faecium = test: Antimicrobial activity against vancomycin-resistant Enterococcus faecium by agar dilution method
Escherichia coli [2] = test: Antimicrobial activity against wild type Escherichia coli by agar dilution method
Staphylococcus aureus [3] = test: Antimicrobial activity against methicillin-resistant Staphylococcus aureus by agar dilution method
Staphylococcus aureus [4] = test: Antimicrobial activity against wild type Staphylococcus aureus by agar dilution method

Question: `O=[N+]([O-])c1c([C@@H](O)c2cc(Cl)cc(Cl)c2O)[nH]c(Cl)c1Cl` [PYRROLOMYCIN G] was tested. Which MIC (Escherichia coli [1]) did it give?
Answer: Its MIC is 32 µg/mL (≈ 86 µM).

Question: And the MIC (Enterococcus faecium)?
Answer: The MIC was 8 µg/mL (≈ 21.5 µM).

Question: What about the MIC (Escherichia coli [2]) of the same compound?
Answer: The MIC was greater than 128 µg/mL.

Question: And the MIC (Staphylococcus aureus [3])?
Answer: Its MIC is 8 µg/mL (≈ 21.5 µM).

Question: What about the MIC (Staphylococcus aureus [4]) of the same compound?
Answer: The MIC was 8 µg/mL (≈ 21.5 µM).

Question: Which MIC (Escherichia coli [1]) does the source give for `COc1c(Cl)cc(Cl)cc1[C@H](O)c1[nH]c(Cl)c(Cl)c1[N+](=O)[O-]` [PYRROLOMYCIN H] here?
Answer: Its MIC is 4 µg/mL (≈ 10.4 µM).

Question: What about the MIC (Escherichia coli [2]) of the same compound?
Answer: Its MIC is 128 µg/mL (≈ 332 µM).

Question: And the MIC (Staphylococcus aureus [3])?
Answer: The MIC was 2 µg/mL (≈ 5.18 µM).

Question: And the MIC (Staphylococcus aureus [4])?
Answer: Its MIC is 1 µg/mL (≈ 2.59 µM).

Question: Which MIC (Escherichia coli [1]) does the source give for `COc1c(Cl)cc(Cl)cc1C(=O)c1[nH]c(Cl)c(Cl)c1Cl` [PYRROLOMYCIN J] here?
Answer: The MIC was 8 µg/mL (≈ 21.4 µM).

Question: What about the MIC (Escherichia coli [2]) of the same compound?
Answer: Its MIC is greater than 128 µg/mL.

Question: And the MIC (Staphylococcus aureus [3])?
Answer: The MIC was 2 µg/mL (≈ 5.36 µM).

Question: And the MIC (Staphylococcus aureus [4])?
Answer: The MIC was 1 µg/mL (≈ 2.68 µM).

Source: ChEMBL document CHEMBL1142592, “Additional pyrrolomycins from cultures of Streptomyces fumanus” (2005)
